Laboratory results published in article PMC7714403 (JCI Insight, 2020).

What was measured:
JAK2 = molecular target: T1, JAK2 (Homo sapiens, UniProt O60674); assay: KdELECT binding assay
T1 construct: purchased Eurofins DiscoverX

MERTK = molecular target: T2, MERTK (Homo sapiens, UniProt Q12866); assay: KdELECT binding assay
T2 construct: purchased Eurofins DiscoverX

FLT3 D835H = molecular target: T3, FLT3 D835H (Homo sapiens, UniProt P36888, D835H); assay: KdELECT binding assay
T3 construct: purchased Eurofins DiscoverX

BRAF = BRAF (Homo sapiens, UniProt P15056); assay: KiNativ, OCI cells live cell; assay type: cell-based; conditions: 2 h, labeling site Lys2, peptide […]
CaMK1d = CaMK1d (Homo sapiens, UniProt Q8IU85); assay: KiNativ, OCI cells live cell; assay type: cell-based; conditions: 2 h
CDK7 = CDK7 (Homo sapiens, UniProt P50613); assay: KiNativ, OCI cells live cell; assay type: cell-based; conditions: 2 h, labeling site Lys2, peptide […]
Erk5 = Erk5 (Homo sapiens, UniProt Q13164); assay: KiNativ, OCI cells live cell; assay type: cell-based; conditions: 2 h, labeling site Lys2, peptide […]
FGR = FGR (Homo sapiens, UniProt P09769); assay: KiNativ, OCI cells live cell; assay type: cell-based; conditions: 2 h, labeling site Activation Loop, peptide […]
FMS = FMS (Homo sapiens, UniProt P07333); assay: KiNativ, OCI cells live cell; assay type: cell-based; conditions: 2 h, labeling site ATP Loop, peptide […]
GSK3A = GSK3A (Homo sapiens, UniProt P49840); assay: KiNativ, OCI cells live cell; assay type: cell-based; conditions: 2 h, labeling site Lys2, peptide […]
HPK1 = HPK1 (Homo sapiens, UniProt Q92918); assay: KiNativ, OCI cells live cell; assay type: cell-based; conditions: 2 h
IKKb = molecular target: T4, IKKb (Homo sapiens, UniProt O14920); assay: KiNativ, OCI cells live cell; assay type: cell-based; conditions: 2 h
T4 sequence (O14920 1-756): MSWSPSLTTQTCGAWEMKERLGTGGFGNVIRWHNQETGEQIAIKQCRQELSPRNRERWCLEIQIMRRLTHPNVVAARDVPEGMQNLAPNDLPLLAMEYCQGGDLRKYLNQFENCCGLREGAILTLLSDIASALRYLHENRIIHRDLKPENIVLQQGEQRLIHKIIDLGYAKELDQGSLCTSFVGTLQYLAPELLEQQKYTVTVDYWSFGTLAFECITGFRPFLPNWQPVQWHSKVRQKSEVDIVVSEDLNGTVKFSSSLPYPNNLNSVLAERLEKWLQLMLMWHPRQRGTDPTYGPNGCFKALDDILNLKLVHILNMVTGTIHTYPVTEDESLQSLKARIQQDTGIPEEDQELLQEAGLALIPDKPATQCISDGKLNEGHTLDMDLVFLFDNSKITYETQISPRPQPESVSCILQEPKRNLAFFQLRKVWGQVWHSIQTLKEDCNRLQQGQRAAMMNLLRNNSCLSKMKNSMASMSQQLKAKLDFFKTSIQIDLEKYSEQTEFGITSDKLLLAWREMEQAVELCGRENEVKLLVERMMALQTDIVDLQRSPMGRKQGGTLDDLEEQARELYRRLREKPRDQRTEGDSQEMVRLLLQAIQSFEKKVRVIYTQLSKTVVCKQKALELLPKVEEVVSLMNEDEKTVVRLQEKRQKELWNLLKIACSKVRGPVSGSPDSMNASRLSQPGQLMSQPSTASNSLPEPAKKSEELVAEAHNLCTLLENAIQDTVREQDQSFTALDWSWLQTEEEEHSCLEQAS

MELK = MELK (Homo sapiens, UniProt Q14680); assay: KiNativ, OCI cells live cell; assay type: cell-based; conditions: 2 h, labeling site Lys2, peptide […]
NEK4 = NEK4 (Homo sapiens, UniProt P51957); assay: KiNativ, OCI cells live cell; assay type: cell-based; conditions: 2 h, labeling site Lys2, peptide […]
p38b = p38b (Homo sapiens, UniProt Q15759); assay: KiNativ, OCI cells live cell; assay type: cell-based; conditions: 2 h, labeling site Other, peptide […]
PIK3C3 = PIK3C3 (Homo sapiens, UniProt Q8NEB9); assay: KiNativ, OCI cells live cell; assay type: cell-based; conditions: 2 h, labeling site ATP
PKR = PKR (Homo sapiens, UniProt P19525); assay: KiNativ, OCI cells live cell; assay type: cell-based
PRP4 = PRP4 (Homo sapiens, UniProt Q13523); assay: KiNativ, OCI cells live cell; assay type: cell-based; conditions: 2 h, labeling site Lys2, peptide […]
[1] = tested on: RSK1 domain1, RSK2 domain1, RSK3 domain1; assay: KiNativ, OCI cells live cell; assay type: cell-based, human; conditions: labeling site Lys2, peptide DLKPENILLDEEGHIK
TAO2 = TAO2 (Homo sapiens, UniProt Q9UL54); assay: KiNativ, OCI cells live cell; assay type: cell-based; conditions: 2 h, labeling site Lys2, peptide […]
TYK2 domain2 = molecular target: T5, TYK2 domain2 (Homo sapiens, UniProt P29597); assay: KiNativ, OCI cells live cell; assay type: cell-based
T5 construct: TYK2 domain2

CDK4 = CDK4 (Homo sapiens, UniProt P11802); assay: KdELECT binding assay; set-up: purchased Eurofins DiscoverX
CDK4, sequence (P11802 whole entry): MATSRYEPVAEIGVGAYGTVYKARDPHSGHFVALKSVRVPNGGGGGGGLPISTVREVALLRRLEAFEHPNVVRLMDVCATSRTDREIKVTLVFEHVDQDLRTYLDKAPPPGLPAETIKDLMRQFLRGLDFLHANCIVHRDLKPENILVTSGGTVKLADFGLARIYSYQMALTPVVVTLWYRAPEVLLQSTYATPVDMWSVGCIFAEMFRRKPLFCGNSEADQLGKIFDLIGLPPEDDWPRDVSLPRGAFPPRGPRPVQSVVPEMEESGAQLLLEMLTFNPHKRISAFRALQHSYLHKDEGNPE

PKR, sequence (P19525 whole entry): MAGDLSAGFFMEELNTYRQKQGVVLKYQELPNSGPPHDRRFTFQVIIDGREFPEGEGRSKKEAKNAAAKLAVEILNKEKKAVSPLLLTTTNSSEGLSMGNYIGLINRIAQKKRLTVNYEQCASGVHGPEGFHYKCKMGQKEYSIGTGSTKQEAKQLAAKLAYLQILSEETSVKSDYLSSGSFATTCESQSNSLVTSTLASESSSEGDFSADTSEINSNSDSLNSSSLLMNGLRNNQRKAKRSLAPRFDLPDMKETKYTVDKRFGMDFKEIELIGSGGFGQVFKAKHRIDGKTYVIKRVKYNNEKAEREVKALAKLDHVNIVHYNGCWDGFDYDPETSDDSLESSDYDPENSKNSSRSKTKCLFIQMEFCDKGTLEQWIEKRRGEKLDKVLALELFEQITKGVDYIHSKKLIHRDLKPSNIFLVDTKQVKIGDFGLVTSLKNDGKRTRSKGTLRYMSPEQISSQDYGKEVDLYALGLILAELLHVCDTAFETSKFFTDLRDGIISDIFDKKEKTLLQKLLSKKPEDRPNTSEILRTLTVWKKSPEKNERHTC
CaMK1d, sequence (Q8IU85 whole entry): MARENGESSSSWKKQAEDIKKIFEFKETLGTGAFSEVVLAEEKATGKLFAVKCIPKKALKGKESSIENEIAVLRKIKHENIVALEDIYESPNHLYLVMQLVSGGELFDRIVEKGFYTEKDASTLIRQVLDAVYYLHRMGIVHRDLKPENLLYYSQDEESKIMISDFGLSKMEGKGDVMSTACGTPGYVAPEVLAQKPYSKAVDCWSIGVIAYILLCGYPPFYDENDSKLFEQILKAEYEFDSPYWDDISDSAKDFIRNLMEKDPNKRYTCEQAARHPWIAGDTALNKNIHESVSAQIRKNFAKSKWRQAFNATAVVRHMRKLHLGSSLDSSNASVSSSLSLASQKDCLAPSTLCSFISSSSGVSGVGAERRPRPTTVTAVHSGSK
T5 sequence (P29597 whole entry, the tested form may be a part): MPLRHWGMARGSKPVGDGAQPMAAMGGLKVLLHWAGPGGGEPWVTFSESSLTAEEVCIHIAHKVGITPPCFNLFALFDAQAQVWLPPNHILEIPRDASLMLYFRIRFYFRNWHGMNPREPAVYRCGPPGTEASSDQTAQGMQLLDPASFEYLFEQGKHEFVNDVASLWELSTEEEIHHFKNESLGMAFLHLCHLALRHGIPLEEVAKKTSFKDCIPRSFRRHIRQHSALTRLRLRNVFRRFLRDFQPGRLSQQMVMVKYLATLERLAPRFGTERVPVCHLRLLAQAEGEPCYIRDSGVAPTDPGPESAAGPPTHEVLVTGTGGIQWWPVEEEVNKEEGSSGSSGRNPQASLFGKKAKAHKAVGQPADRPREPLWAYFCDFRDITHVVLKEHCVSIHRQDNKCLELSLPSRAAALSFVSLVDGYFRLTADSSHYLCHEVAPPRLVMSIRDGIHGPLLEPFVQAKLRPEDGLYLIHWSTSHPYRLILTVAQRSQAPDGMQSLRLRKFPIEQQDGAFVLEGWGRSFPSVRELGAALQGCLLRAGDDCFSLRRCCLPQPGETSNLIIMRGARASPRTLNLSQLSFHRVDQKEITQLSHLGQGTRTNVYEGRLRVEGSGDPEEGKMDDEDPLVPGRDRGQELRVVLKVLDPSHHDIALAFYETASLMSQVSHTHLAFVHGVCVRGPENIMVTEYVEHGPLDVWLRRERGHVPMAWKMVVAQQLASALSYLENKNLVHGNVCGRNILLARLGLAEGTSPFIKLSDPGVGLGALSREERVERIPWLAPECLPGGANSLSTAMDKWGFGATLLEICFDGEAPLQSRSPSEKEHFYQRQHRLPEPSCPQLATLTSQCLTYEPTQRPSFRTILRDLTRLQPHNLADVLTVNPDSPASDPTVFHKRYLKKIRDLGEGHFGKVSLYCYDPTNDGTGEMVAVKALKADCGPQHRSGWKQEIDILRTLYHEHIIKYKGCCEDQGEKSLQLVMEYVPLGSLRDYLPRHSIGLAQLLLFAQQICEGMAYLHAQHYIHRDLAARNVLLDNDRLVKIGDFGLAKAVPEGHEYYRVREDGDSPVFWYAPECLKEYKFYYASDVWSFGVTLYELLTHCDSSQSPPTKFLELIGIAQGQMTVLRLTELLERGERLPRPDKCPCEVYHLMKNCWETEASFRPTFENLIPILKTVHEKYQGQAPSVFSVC
HPK1, sequence (Q92918 whole entry): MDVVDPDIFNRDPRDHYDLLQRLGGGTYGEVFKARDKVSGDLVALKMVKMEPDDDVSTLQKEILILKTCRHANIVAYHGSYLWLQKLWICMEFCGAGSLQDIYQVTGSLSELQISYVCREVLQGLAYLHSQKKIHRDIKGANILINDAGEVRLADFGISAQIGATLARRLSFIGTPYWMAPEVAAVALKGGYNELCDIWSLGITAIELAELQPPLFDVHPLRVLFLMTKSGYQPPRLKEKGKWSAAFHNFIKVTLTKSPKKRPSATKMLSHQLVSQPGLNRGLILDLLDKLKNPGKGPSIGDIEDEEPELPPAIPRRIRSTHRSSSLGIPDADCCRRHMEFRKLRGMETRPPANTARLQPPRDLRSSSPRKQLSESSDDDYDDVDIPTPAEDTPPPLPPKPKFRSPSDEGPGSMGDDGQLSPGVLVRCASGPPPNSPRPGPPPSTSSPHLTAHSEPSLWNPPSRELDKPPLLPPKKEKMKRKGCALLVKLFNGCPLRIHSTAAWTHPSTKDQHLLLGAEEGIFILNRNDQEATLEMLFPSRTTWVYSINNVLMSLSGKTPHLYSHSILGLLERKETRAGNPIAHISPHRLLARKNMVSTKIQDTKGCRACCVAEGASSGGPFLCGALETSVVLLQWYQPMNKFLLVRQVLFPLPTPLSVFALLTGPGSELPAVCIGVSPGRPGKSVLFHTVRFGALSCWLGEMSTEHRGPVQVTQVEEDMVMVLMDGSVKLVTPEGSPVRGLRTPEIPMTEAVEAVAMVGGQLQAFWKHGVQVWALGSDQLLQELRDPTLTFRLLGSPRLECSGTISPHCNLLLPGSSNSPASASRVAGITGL
PIK3C3, sequence (Q8NEB9 whole entry): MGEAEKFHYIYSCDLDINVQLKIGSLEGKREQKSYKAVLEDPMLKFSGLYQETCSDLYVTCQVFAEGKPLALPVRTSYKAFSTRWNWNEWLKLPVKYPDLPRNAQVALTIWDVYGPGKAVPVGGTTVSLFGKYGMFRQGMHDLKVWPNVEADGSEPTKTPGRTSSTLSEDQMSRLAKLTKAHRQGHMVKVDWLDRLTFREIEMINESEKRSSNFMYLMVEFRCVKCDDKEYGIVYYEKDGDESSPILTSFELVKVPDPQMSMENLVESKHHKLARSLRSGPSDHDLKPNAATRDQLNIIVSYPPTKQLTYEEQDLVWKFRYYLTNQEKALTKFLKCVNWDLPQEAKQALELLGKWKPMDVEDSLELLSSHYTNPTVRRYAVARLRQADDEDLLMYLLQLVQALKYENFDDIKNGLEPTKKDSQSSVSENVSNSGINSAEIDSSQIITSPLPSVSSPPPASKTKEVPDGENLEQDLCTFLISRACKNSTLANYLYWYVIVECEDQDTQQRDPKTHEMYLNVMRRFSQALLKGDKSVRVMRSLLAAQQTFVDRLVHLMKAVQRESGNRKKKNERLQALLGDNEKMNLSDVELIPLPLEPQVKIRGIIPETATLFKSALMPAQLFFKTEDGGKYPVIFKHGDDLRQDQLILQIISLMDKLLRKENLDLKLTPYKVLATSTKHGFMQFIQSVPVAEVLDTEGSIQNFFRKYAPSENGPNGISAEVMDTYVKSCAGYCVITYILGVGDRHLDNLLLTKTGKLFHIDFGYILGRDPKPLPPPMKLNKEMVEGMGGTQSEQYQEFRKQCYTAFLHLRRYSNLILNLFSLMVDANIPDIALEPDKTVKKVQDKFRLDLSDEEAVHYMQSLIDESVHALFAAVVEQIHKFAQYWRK
FGR, sequence (P09769 whole entry): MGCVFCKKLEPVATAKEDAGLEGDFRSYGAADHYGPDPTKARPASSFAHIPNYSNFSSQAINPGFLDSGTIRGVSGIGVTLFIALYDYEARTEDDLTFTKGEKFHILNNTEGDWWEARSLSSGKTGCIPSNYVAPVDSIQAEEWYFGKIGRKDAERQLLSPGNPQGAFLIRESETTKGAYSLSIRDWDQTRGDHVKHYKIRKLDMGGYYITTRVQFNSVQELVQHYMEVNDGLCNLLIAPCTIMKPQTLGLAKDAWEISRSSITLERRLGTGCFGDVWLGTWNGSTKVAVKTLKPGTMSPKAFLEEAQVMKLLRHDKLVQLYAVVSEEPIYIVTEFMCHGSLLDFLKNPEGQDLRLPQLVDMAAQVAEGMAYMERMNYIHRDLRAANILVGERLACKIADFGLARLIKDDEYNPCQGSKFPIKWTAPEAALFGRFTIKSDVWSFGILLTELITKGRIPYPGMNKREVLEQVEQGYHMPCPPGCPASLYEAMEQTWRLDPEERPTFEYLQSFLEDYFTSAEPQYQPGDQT
p38b, sequence (Q15759 whole entry): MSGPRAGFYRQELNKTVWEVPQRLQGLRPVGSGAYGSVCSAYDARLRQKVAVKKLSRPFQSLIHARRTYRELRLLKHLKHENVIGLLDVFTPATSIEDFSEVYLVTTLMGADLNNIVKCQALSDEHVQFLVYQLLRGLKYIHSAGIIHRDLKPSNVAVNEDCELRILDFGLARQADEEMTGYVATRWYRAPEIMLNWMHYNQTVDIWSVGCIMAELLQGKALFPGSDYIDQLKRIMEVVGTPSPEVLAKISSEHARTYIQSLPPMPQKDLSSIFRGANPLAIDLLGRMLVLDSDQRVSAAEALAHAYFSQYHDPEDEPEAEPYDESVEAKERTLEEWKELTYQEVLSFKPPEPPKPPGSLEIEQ

## CN1CCN(Cc2ccc(Nc3ncc(Cl)c(Nc4ccccc4S(=O)(=O)N(C)C)n3)cc2)CC1 [TP-0903]
JAK2
  Kd: < 5 nM
MERTK
  Kd: < 5 nM
FLT3 D835H
  Kd: 1.9 nM
BRAF
  inhibition at 0.1 µM: -3.1%
CaMK1d; labeling site Lys1, peptide LFAVKCIPK
  inhibition at 0.1 µM: 13%
CaMK1d; labeling site Lys2, peptide DLKPENLLYYSQDEESK
  inhibition at 0.1 µM: 8.8%
CDK7
  inhibition at 0.1 µM: 95.7%
Erk5
  inhibition at 0.1 µM: 86.8%
FGR
  inhibition at 0.1 µM: 9.5%
FMS
  inhibition at 0.1 µM: -50%
GSK3A
  inhibition at 0.1 µM: 22.6%
HPK1; labeling site Lys1, peptide DKVSGDLVALKMVK
  inhibition at 0.1 µM: 81%
HPK1; labeling site Lys2, peptide DIKGANILINDAGEVR
  inhibition at 0.1 µM: 78.7%
IKKb; labeling site Lys1, peptide WHNQETGEQIAIKQCR
  inhibition at 0.1 µM: -16%
IKKb; labeling site Lys2, peptide DLKPENIVLQQGEQR
  inhibition at 0.1 µM: 14.6%
MELK
  inhibition at 0.1 µM: 13.5%
NEK4
  inhibition at 0.1 µM: -12.3%
p38b
  inhibition at 0.1 µM: -9.9%
PIK3C3; peptide TEDGGKYPVIFKHGDDLR
  inhibition at 0.1 µM: -16.8%
PIK3C3; peptide TEDGGKYPVIFKHGDDLRQDQLILQIISLMDK
  inhibition at 0.1 µM: -18.2%
PKR; labeling site Activation Loop, peptide IGDFGLVTSLKNDGKR
  Inhibition: -16.3%
PKR; labeling site Lys2, peptide DLKPSNIFLVDTK
  Inhibition: -9.9%
PRP4
  inhibition at 0.1 µM: -18.7%
[1]
  Inhibition: 54.4%
TAO2
  inhibition at 0.1 µM: 73.7%
TYK2 domain2; labeling site Activation Loop, peptide IGDFGLAKAVPEGHEYYR
  Inhibition: -38.7%
TYK2 domain2; labeling site Lys1, peptide VSLYCYDPTNDGTGEMVAVKALK
  Inhibition: 21.1%
CDK4
  Kd: < 5 nM
